Laboratory results: the NIST ThermoML archive (doi:10.1016/j.tca.2019.02.008)

Tests used:
[1] = for vapor or sublimation pressure: Transpiration method; for Triple point temperature: DSC
[2] = Molar enthalpy of transition or fusion; conditions: DSC

Br.CN [methylammonium bromide]
vapor or sublimation pressure [kPa], [1]
Conditions	433 K	444 K	454 K	463 K	468 K	473 K	488 K	493 K	498 K	503 K
Crystal 1	–	–	–	–	–	–	0.1234	0.1563	0.1897	0.2394
Crystal 2	0.0057	0.0104	0.0202	0.0348	0.0413	0.0576	–	–	–	–

Conditions	Molar enthalpy of transition or fusion, Crystal 2 [kcal/mol]	Molar enthalpy of transition or fusion, Crystal 3 [kcal/mol]	Triple point temperature, Crystal 1 [K]	Triple point temperature, Crystal 2 [K]	Triple point temperature, Crystal 3 [K]
[1]	–	–	520.5	480.8	392.1
[2]	0.868	0.351	–	–	–
